{
  "source": "patent US9815815B2",
  "about": "“Non-selective kinase inhibitors” (GILEAD SCIENCES, INC., priority 2013, dated 2017)",
  "key": {"[1]": {"test": "Two-chamber plethysmography in the rat MCT+PN model", "format": "in vivo", "parameters": "SRaw: unit not given beside the values", "description": "Plethysmography. Plethysmography was performed with an EMKA dual chamber plethysmograph and IOX software. Parameters measured included breathing frequency, tidal volume, minute ventilation, peak inspiratory and expiratory flow, and airway resistance (SRaw). Animals were acclimatized to the plethysmograph for three days prior to first data acquisition. Measurements were made prior to the first dose of drug and at the end of the study."}, "[2]": {"test_system": "PDGFAA stimulated AKT phosphorylation", "test": "In cell Western (ICW), PDGFAA stimulated AKT phosphorylation in human fetal lung fibroblasts", "format": "cell-based", "settings": "comparison in words", "description": "In cell Western (ICW). […] HLFs were maintained in subculture at no more than 6 passages in DMEM with 5% FBS and 4 mM Glutamax at 37° C., 5% CO2. HLFs were plated and grown to 70-80% confluence in 96 well plates then serum-starved for 48 hours. […] After washing, the signal was quantified using an Odyssey Infrared Imaging System (LI-COR). Phosphoprotein signal (800 nm) was normalized to total protein signal (700 nm) acquired from each well and experimental duplicates on same plate were averaged and reported."}, "[3]": {"test_system": "rat MCT model", "settings": "8 min inhalation 3x/day, two weeks", "quoted_text": "At the end of the study RVSP pressure was measured; lung and heart fixed in formalin. For measurement of RVSP animals were sedated with isoflurane, intubated via a tracheostomy, and ventilated with a TOPOVENT pressure regulated ventilator (peak inspiratory pressure 18 cm H2O, PEEP 5 cm). After sternotomy, a Scisense high fidelity catheter inserted via the RV apex.\nHistology and morphometric analysis. At the end of the study, the heart and lungs were removed from ventilated animals under general anesthesia. Heparinized saline was infused under pressure through the main pulmonary artery. […] The heart was removed, and the RV free wall, interventricular septum and LV free wall dissected and weighed. Buffered formalin (10%) was infused under pressure both through the pulmonary artery and the trachea. Morphometric analysis was performed on H&E stained formalin fixed tissue sectioned at 8 μm. The media area and lumen area of pulmonary arterioles were measured with Image J software by a technician blinded to treatment group. Measurements were made on 20 pulmonary arterioles per section. The ratio of the lumen area to the total media area was determined This ratio normalizes the variation in total pulmonary arteriole area. […] Briefly, pre-capillary arterioles were assigned grade 0 for no evidence of neointimal lesions, grade 1 for less than 50% luminal occlusion, and grade 2 for greater than 50% occlusion."}, "[4]": {"test_system": "PDGFBB stimulated phosphorylation of ERK1 and ERK2", "test": "PDGFBB stimulated phosphorylation of ERK1 and ERK2 in human fetal lung fibroblasts", "format": "cell-based"}, "[5]": {"test_system": "AKT", "test": "NanoPro immunoassay pAKT/AKT in lung extracts, MCT+PN model", "format": "in vivo, rat"}, "[6]": {"test_system": "ERK1/2", "test": "NanoPro immunoassay pERK1/2 in lung homogenates, MCT+PN model", "format": "in vivo, rat", "settings": "D4 and D8 groups compared to vehicle", "from_the_text": "(§1) Histology and morphometric analysis. At the end of the study, the heart and lungs were removed from ventilated animals under general anesthesia. Heparinized saline was infused under pressure through the main pulmonary artery. The right upper lobe was immediately tied off and placed in liquid nitrogen for Western blot and NanoPro 100 ™ assay analysis. The heart was removed, and the RV free wall, interventricular septum and LV free wall dissected and weighed. Buffered formalin (10%) was infused under pressure both through the pulmonary artery and the trachea. Morphometric analysis was performed on H&E stained formalin fixed tissue sectioned at 8 μm. The media area and lumen area of pulmonary arterioles were measured with Image J software by a technician blinded to treatment group. Measurements were made on 20 pulmonary arterioles per section. The ratio of the lumen area to the total media area was determined This ratio normalizes the variation in total pulmonary arteriole area. […]\n(§2) NanoPro Immunoassay™. Relative differences in phosphorylated ERK1/2 and STAT isoforms were measured with a NanoPro100™ immunoassay system (Protein Simple/Cell Biosciences, CA). […]"}, "[7]": {"test_system": "STAT3", "test": "NanoPro immunoassay pSTAT3/STAT3 in lung extracts, MCT+PN model", "format": "in vivo, rat", "settings": "D4 and D8 groups compared to vehicle", "from_the_text": "as §1, §2"}, "[8]": {"test_system": "rat MCT+PN model", "test": "Telemetry study of PA pressure in the rat MCT+PN model", "format": "in vivo", "settings": "by inhalation", "description": "Efficacy study in the rat MCT+PN model. Pneumonectomy and implantation of a TRM53P telemetry monitor in the pulmonary artery (Telemetry Research, New Zealand and ADlnstruments, Colorado) was carried out in rats. Two weeks after MCT, PK10453 (Structure 2) was administered three times daily for 1 week. […] Sampling of PA pressure was performed 5 min before each morning dose in ambulatory animals in room air (estimated atmospheric pressure 716 mm Hg based on elevation of animal facility). […] Telemetry data was obtained for 10 min daily before each morning dose for this protocol."}, "[9]": {"test_system": "PDGFBB stimulated AKT phosphorylation", "test": "In cell Western (ICW), PDGFBB stimulated AKT phosphorylation in human fetal lung fibroblasts", "format": "cell-based", "settings": "comparison in words", "description": "In cell Western (ICW). […] HLFs were maintained in subculture at no more than 6 passages in DMEM with 5% FBS and 4 mM Glutamax at 37° C., 5% CO2. HLFs were plated and grown to 70-80% confluence in 96 well plates then serum-starved for 48 hours. […] Antibodies were detected using IRDye 680LT goat anti-mouse IgG and IRDye 800W goat a-rabbit IgG conjugated antibodies. After washing, the signal was quantified using an Odyssey Infrared Imaging System (LI-COR). Phosphoprotein signal (800 nm) was normalized to total protein signal (700 nm) acquired from each well and experimental duplicates on same plate were averaged and reported."}, "[10]": {"test_system": "PDGFAA stimulated phosphorylation of ERK1 and ERK2", "test": "PDGFAA stimulated phosphorylation of ERK1 and ERK2 in human fetal lung fibroblasts", "format": "cell-based", "settings": "1 uM"}, "[11]": {"test_system": "rat MCT model", "test": "PK10453 dose response study in the rat MCT model", "format": "in vivo", "description": "Efficacy study in the rat MCT model—PK10453 (Structure 2) dose response study in the rat MCT Model. Male Sprague Dawley rats received MCT 60 mg/kg IPMCT, and after 3 weeks, PK10453 (Structure 2) or vehicle control were administered by inhalation. Four groups were studied: vehicle control (4 min exposure) and three treatment groups of PK10453 (Structure 2) with exposure times 2 min (D2), 4 min (D4), or 8 min (D8) three times a day. These regimens were administered for two weeks. The vehicle consisted of aerosolized 1M tosylic acid neutralized with ammonia vapor as described above. The pH of a solution prepared by dissolving captured aerosol particles in water was measured for every dose and was consistently in the range of 5.5-6.0. At the end of the study, the RV systolic pressure was measured, and the heart chambers dissected and weighed."}},
  "note": "Marks after values point to notes of the source that are not given here.",
  "data": [
    {"compound": "COc1cc(-c2cncc(N[C@@H](C)c3cccc(NC(=O)c4cncc(C)c4)c3)n2)ccc1O", "note": "[PK10453, (S)-N-(3-(1-((6-(4-hydroxy-3-methoxyphenyl)pyrazin-2yl)amino)ethyl)phenyl)-5-methylnicotinamide]", "values": [
      {"measurement": "MV", "setting": "[1]; day 1, D4, mean", "value": 223.24, "unit": "mL/min"},
      {"measurement": "PEF", "setting": "[1]; day 1, D4, mean", "value": 11.04},
      {"measurement": "PIF", "setting": "[1]; day 1, D4, mean", "value": 9.82},
      {"measurement": "SRaw", "setting": "[1]; day 1, D4, mean", "value": 39.73},
      {"measurement": "TV", "setting": "[1]; day 1, D4, mean", "value": 1.00, "unit": "mL"},
      {"measurement": "f", "setting": "[1]; day 1, D4, mean", "value": 224.68, "unit": "breaths per minute"},
      {"measurement": "MV", "setting": "[1]; day 1, D8, mean", "value": 174.68, "unit": "mL/min"},
      {"measurement": "PEF", "setting": "[1]; day 1, D8, mean", "value": 9.43},
      {"measurement": "PIF", "setting": "[1]; day 1, D8, mean", "value": 8.54},
      {"measurement": "SRaw", "setting": "[1]; day 1, D8, mean", "value": 36.01},
      {"measurement": "TV", "setting": "[1]; day 1, D8, mean", "value": 0.74, "unit": "mL"},
      {"measurement": "f", "setting": "[1]; day 1, D8, mean", "value": 259.13, "unit": "breaths per minute"},
      {"measurement": "MV", "setting": "[1]; day 15, D4, mean", "value": "176.12§"},
      {"measurement": "PEF", "setting": "[1]; day 15, D4, mean", "value": "9.33*"},
      {"measurement": "PIF", "setting": "[1]; day 15, D4, mean", "value": "7.82*"},
      {"measurement": "SRaw", "setting": "[1]; day 15, D4, mean", "value": 33.09},
      {"measurement": "TV", "setting": "[1]; day 15, D4, mean", "value": 0.85},
      {"measurement": "f", "setting": "[1]; day 15, D4, mean", "value": 217.12, "unit": "breaths per minute"},
      {"measurement": "MV", "setting": "[1]; day 15, D8, mean", "value": 128.49},
      {"measurement": "PEF", "setting": "[1]; day 15, D8, mean", "value": 6.64},
      {"measurement": "PIF", "setting": "[1]; day 15, D8, mean", "value": 6.06},
      {"measurement": "SRaw", "setting": "[1]; day 15, D8, mean", "value": 49.26},
      {"measurement": "TV", "setting": "[1]; day 15, D8, mean", "value": 0.63},
      {"measurement": "f", "setting": "[1]; day 15, D8, mean", "value": 232.11, "unit": "breaths per minute"},
      {"measurement": "effect on lung function, in words", "setting": "[1]; inhaled, 2-wk course", "value": "did not adversely affect lung function"},
      {"measurement": "IC50 for PDGFAA stimulated phosphorylation of AKT, PK10453 vs imatinib", "setting": "[2]", "value": "not significantly different"},
      {"measurement": "End systolic volume", "setting": "[3]", "value": "99.5 ± 10", "unit": "µL"},
      {"measurement": "PDGFBB stimulated ppERK1 formation", "setting": "[4]; 1 uM", "value": "effective"},
      {"measurement": "decreasing PDGF BB stimulated ppERK1 and ppERK2, compared to imatinib", "setting": "[4]; 1 uM and 10 uM", "value": "more effective"},
      {"measurement": "pAKT(Thr308)/AKT ratio in lung extracts", "setting": "[5]; D4, D8 vs vehicle", "value": "not significantly different"},
      {"measurement": "pAKT(Ser473)/AKT ratio in lung extracts", "setting": "[5]; treated vs vehicle", "value": "significant reduction"},
      {"measurement": "pERK1/ERK1 in lung homogenates", "setting": "[6]", "value": "significant reductions"},
      {"measurement": "ppERK1/ERK1 in lung homogenates", "setting": "[6]", "value": "significant reductions"},
      {"measurement": "pSTAT3/STAT3 ratio", "setting": "[7]", "value": "significant reduction"},
      {"measurement": "efficacy in the MCT+PN model, in words", "setting": "[8]", "value": "prevented the progression of PAH"},
      {"measurement": "IC50 for inhibiting PDGFBB stimulated AKT phosphorylation, compared to imatinib", "setting": "[9]", "value": "lower IC50 concentrations compared to imatinib"},
      {"measurement": "decreasing PDGF AA stimulated ppERK1 and ppERK2 formation", "setting": "[10]", "value": "equally effective"},
      {"measurement": "reduction in RVSP compared to the vehicle treated group", "setting": "[11]; D4", "value": 44, "unit": "%"},
      {"measurement": "reduction in RVSP compared to the vehicle treated group", "setting": "[11]; D8", "value": 54, "unit": "%"},
      {"measurement": "RV hypertrophy, ratio (RV+IVS)/LV weight", "setting": "[11]; inhalation, two weeks, in words", "value": "significant reduction"},
      {"measurement": "decrease of RV systolic pressure", "setting": "[11]; rat MCT model, inhalation", "value": 50, "unit": "%"}
    ]}
  ]
}
